# According to the supplement of paper PMC10307832:
# Legend:
# Assay in all cases: relative viability (nuclei count vs DMSO), 5 days (fraction); higher = more cells survive
# BI-2536 + Navitoclax = compound: CC[C@@H]1C(=O)N(C)c2cnc(Nc3ccc(C(=O)NC4CCN(C)CC4)cc3OC)nc2N1C1CCCC1 [BI-2536] + CC1(C)CCC(c2ccc(Cl)cc2)=C(CN2CCN(c3ccc(C(=O)NS(=O)(=O)c4ccc(N[C@H](CCN5CCOCC5)CSc5ccccc5)c(S(=O)(=O)C(F)(F)F)c4)cc3)CC2)C1 [Navitoclax] (partner 0.5 µM)
# Method in brief: (§1)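 Nuclei were stained with Hoechst during a one-step fixation (final 0.05% Triton X-100, 1% formaldehyde, 1 ug/ml Hoechst) carried out 5 days after dosing, then counted on 4× images. The cells, lung cancer lines in 1536-well plates, had been dosed by pin tool the day after seeding with one drug alone or a fixed anchor-drug dose plus five library-drug doses (not always all listed) in √10 steps. Relative viability is the nuclei count in treated wells divided by that in vehicle wells, and each value is the median of duplicate plates.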
# [1] = compound: CC1CC(=O)N(C2=CN=C(N=C2N1C3CCCC3)NC4=C(C=C(C=C4)C(=O)NC5CCN(CC5)C)OC)C [NPK76-II-72-1] + O=C(CCCCCCC(=O)Nc1ccccc1)NO [Vorinostat] (partner 1 µM)
# Method in brief: as §1
# BI-2536 + Linsitinib = compound: CC[C@@H]1C(=O)N(C)c2cnc(Nc3ccc(C(=O)NC4CCN(C)CC4)cc3OC)nc2N1C1CCCC1 [BI-2536] + C[C@]1(O)C[C@@H](c2nc(-c3ccc4ccc(-c5ccccc5)nc4c3)c3c(N)nccn32)C1 [Linsitinib] (partner 1 µM)
# Method in brief: as §1
# NPK76-II-72-1 + OSI-027 = compound: CC1CC(=O)N(C2=CN=C(N=C2N1C3CCCC3)NC4=C(C=C(C=C4)C(=O)NC5CCN(CC5)C)OC)C [NPK76-II-72-1] + COc1cccc2cc(-c3nc([C@H]4CC[C@H](C(=O)O)CC4)n4ncnc(N)c34)[nH]c12 [OSI-027] (partner 0.5 µM)
# Method in brief: as §1
Cell Line,relative viability (BI-2536 + Navitoclax; first compound 0.01 µM),relative viability (BI-2536 + Navitoclax; first compound 0.03162 µM),relative viability (BI-2536 + Navitoclax; first compound 0.1 µM),relative viability (BI-2536 + Navitoclax; first compound 0.3162 µM),relative viability (BI-2536 + Navitoclax; first compound 1 µM),relative viability ([1]; first compound 0.01 µM),relative viability ([1]; first compound 0.03162 µM),relative viability ([1]; first compound 0.1 µM),relative viability ([1]; first compound 0.3162 µM),relative viability ([1]; first compound 1 µM),relative viability (BI-2536 + Linsitinib; first compound 0.01 µM),relative viability (BI-2536 + Linsitinib; first compound 0.03162 µM),relative viability (BI-2536 + Linsitinib; first compound 0.1 µM),relative viability (BI-2536 + Linsitinib; first compound 0.3162 µM),relative viability (BI-2536 + Linsitinib; first compound 1 µM),relative viability (NPK76-II-72-1 + OSI-027; first compound 0.01 µM),relative viability (NPK76-II-72-1 + OSI-027; first compound 0.03162 µM),relative viability (NPK76-II-72-1 + OSI-027; first compound 0.1 µM),relative viability (NPK76-II-72-1 + OSI-027; first compound 0.3162 µM),relative viability (NPK76-II-72-1 + OSI-027; first compound 1 µM)
HCC-78,0.772,0.708,0.635,0.344,0.144,0.456,0.461,0.463,0.418,0.499,0.613,0.481,0.511,0.52,0.207,0.511,0.467,0.356,0.496,0.404
HCC-366,1.1,1.1,0.809,0.0109,0.0154,0.358,0.361,0.394,0.322,0.461,0.648,0.739,0.535,0.0173,0.0162,0.939,0.998,1.08,0.863,0.888
HCC-827,1.06,1,0.99,0.23,0.186,0.825,0.9,0.831,0.817,0.942,1.08,1.01,0.947,0.796,0.268,0.75,0.788,0.835,0.597,0.801
HOP-62,1,1.08,0.967,0.0716,0.0536,0.618,0.767,0.598,0.39,0.713,0.89,1,0.914,0.135,0.142,0.784,0.919,0.917,0.722,0.978
IA-LM,0.753,0.559,0.0092,0.0147,0.0245,1.1,0.923,0.852,1.03,1.1,0.641,0.55,0.774,0.104,0.164,–,–,–,–,–
LC-2-ad,0.412,0.405,0.113,0.108,0.103,0.619,0.768,0.668,0.755,0.698,0.891,0.85,0.382,0.15,0.143,0.768,0.885,0.826,0.791,0.954
LCLC-97TM1,0.567,0.564,0.246,0.121,0.142,0.682,1.03,0.561,0.61,0.814,0.157,0.239,0.168,0.143,0.113,0.479,0.67,0.407,0.45,0.577
LCLC-103H,–,–,–,–,–,–,0.83,0.769,0.745,0.838,1.16,1.04,1.05,0.942,0.143,0.458,0.41,0.477,0.439,0.413
NCI-H358,–,–,–,–,–,0.674,0.647,0.754,–,0.818,0.723,0.676,0.402,0.161,0.137,0.703,0.812,1,–,0.916
NCI-H522,–,–,–,–,–,0.736,0.902,0.995,–,0.79,–,–,–,–,–,0.72,0.969,0.681,0.623,0.846
NCI-H650,–,–,–,–,–,0.445,0.441,0.453,0.307,0.521,0.964,0.881,0.534,0.165,0.17,0.512,0.565,0.515,0.49,0.623
NCI-H661,–,–,–,–,–,0.772,0.785,0.755,0.735,0.795,0.458,0.567,0.709,0.232,0.2,0.667,0.772,0.746,0.588,0.742
NCI-H1299,1.08,1.1,1.05,0.315,0.254,–,–,–,–,–,1,0.971,0.974,0.245,0.363,–,–,–,–,–
NCI-H1563,–,–,–,–,–,–,–,–,–,–,1.17,1.19,1.22,0.73,0.766,0.698,0.804,0.739,0.749,0.778
NCI-H1623,–,–,–,–,–,–,–,–,–,–,–,–,–,–,–,0.422,0.405,0.432,0.362,0.461
NCI-H1648,–,–,–,–,–,0.455,0.536,0.319,0.348,0.437,–,–,–,–,–,0.239,0.244,–,–,0.26
NCI-H1650,1.12,1.1,0.62,0.145,0.149,0.571,0.508,0.658,0.57,0.555,–,–,–,–,–,0.609,0.716,0.576,0.414,0.738
NCI-H1703,1.13,0.349,0.136,0.142,0.104,–,–,–,–,–,0.77,0.296,0.574,0.117,0.0956,–,–,–,–,–
NCI-H1792,0.624,0.589,0.559,0.171,0.0662,–,–,–,–,–,0.585,0.634,0.495,0.444,0.131,0.701,–,0.734,0.753,0.802
NCI-H2170,0.614,0.561,0.367,0.167,0.187,0.731,0.855,0.823,0.38,0.941,–,–,–,–,–,0.73,0.759,0.716,0.493,0.798
NCI-H2342,–,–,–,–,–,0.742,0.917,0.783,0.658,0.763,–,–,–,–,–,0.632,0.572,0.632,0.435,0.58
SW 900,–,–,–,–,–,0.515,0.624,0.515,0.433,0.559,–,–,–,–,–,0.542,0.475,0.513,0.601,0.713
